Tested on: soybean seeds
Assay: Seed pre-soak in 2 percent aqueous glyphosate, then planting and observing germination
Format: in vivo, Glycine max L.
Settings: six hour soak at room temperature, observed three weeks
Text: The identification of soybean germplasm within which naturally-occurring herbicide resistance genes reside involved the screening of thirty-four soybean lines obtained from publicly-available seed stocks. The initial step in the screening was to pre-soak individual batches of seeds representing the thirty-four test lines in a 2 percent aqueous solution of glyphosate at room temperature. The individual batches of seeds were immersed in this 2 percent solution for a period of six hours. […] This screening step was essential to determine how seeds responded to the herbicide. Twelve of the varieties were present as approximately 2,500 seeds. There were approximately 5,000 seeds of the remaining 22 varieties. Each variety was immersed in separate containers to assure variety identification and isolation. The varieties that were tested are identified in Table 1.
After this initial pre-soak, each lot of seeds was labeled and was placed in a flat (36″×18″×9″) containing a soil/peat mixture growth medium, with the mixture being 50 percent top soil (sandy loam) and 50 percent peat moss, that was provided at a depth of 9 inches. […]
Germination and emergence of any seedlings was then observed for the next three weeks. […] Of these five lines, the ‘Dwight’ and ‘Jack’ varieties were chosen for further screening using large quantities of seeds.

O=C(O)CNCP(=O)(O)O [glyphosate, N-(phosphonomethyl)glycine]
Germination of herbicide-treated soybean seeds: failed to germinate

— patent publication US7563951B2, “Soybean seeds and plants exhibiting natural herbicide resistance” (Natural Genes, Inc., priority 2002, dated 2009)
